The structures appear in SMILES notation. Active and inactive are the calls of the source. No cut-off for these calls is given here.

We go through four compounds from ChEMBL document CHEMBL1250451, “Mechanistic insights into a Ca2+-dependent family of alpha-mannosidases in a human gut symbiont” (Nat Chem Biol, 2010).

What all share (type): protein assay
Assay [1] deals with T1, Alpha-1,2-mannosidase family protein (BT_1032) (Bacteroides thetaiotaomicron) (UniProt Q8A8Y5).
T1 sequence (whole entry): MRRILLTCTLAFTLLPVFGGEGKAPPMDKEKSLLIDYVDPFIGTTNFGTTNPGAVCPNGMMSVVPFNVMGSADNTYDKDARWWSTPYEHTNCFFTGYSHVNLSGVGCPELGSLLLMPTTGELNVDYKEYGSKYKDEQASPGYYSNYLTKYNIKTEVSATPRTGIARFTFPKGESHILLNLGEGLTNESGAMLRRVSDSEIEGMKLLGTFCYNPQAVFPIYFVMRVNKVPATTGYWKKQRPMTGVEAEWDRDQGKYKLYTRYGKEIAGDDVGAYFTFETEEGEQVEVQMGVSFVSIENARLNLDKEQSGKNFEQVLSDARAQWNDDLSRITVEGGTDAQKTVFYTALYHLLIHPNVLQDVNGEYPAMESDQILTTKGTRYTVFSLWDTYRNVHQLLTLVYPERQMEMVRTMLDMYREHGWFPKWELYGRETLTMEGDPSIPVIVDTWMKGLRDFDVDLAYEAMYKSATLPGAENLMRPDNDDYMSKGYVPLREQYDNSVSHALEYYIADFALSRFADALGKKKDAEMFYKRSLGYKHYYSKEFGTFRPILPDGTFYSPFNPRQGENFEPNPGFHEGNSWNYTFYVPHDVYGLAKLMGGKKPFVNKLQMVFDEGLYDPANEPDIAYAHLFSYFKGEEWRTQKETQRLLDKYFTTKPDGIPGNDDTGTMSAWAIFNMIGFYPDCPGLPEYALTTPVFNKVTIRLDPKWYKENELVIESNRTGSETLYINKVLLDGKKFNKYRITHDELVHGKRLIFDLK
The assay is described as follows: Activity of Bacteroides thetaiotaomicron GH92 alpha-mannosidase 1032 assessed as mannose release at 1 mM after 16 hrs by HPLC relative to untreated control.

In assay [2] the target is T2, Alpha-1,2-mannosidase, putative (BT_3773) (Bacteroides thetaiotaomicron) (UniProt Q8A193).
T2 sequence (whole entry): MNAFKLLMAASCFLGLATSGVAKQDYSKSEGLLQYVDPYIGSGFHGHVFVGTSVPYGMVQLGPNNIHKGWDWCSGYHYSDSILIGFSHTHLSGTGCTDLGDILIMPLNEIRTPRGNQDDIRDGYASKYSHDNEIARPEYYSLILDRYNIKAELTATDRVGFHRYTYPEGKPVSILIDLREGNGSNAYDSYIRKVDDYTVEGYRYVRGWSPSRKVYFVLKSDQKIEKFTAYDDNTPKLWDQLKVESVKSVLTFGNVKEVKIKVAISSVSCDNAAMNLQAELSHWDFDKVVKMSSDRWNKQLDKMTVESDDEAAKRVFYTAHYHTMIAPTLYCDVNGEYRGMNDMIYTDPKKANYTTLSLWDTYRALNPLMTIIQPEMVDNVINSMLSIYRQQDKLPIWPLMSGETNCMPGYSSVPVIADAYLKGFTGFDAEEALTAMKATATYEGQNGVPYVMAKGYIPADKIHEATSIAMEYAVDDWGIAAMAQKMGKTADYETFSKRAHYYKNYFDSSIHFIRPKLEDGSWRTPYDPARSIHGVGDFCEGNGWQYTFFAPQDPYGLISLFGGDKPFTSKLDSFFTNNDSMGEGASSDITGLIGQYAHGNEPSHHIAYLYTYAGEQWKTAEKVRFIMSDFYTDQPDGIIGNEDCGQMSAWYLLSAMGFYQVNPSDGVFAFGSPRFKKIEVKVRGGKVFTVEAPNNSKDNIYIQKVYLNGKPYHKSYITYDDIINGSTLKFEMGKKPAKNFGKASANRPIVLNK
Put plainly: Activity of Bacteroides thetaiotaomicron GH92 alpha-mannosidase GH92 alpha-mannosidase 3773 assessed as mannose release at 1 mM after 16 hrs by HPLC relative to untreated control after 16 hrs by HPLC.

In assay [3] the target is T3, Alpha-1,2-mannosidase family protein (BT_4093) (Bacteroides thetaiotaomicron) (UniProt Q8A0C8).
T3 sequence (whole entry): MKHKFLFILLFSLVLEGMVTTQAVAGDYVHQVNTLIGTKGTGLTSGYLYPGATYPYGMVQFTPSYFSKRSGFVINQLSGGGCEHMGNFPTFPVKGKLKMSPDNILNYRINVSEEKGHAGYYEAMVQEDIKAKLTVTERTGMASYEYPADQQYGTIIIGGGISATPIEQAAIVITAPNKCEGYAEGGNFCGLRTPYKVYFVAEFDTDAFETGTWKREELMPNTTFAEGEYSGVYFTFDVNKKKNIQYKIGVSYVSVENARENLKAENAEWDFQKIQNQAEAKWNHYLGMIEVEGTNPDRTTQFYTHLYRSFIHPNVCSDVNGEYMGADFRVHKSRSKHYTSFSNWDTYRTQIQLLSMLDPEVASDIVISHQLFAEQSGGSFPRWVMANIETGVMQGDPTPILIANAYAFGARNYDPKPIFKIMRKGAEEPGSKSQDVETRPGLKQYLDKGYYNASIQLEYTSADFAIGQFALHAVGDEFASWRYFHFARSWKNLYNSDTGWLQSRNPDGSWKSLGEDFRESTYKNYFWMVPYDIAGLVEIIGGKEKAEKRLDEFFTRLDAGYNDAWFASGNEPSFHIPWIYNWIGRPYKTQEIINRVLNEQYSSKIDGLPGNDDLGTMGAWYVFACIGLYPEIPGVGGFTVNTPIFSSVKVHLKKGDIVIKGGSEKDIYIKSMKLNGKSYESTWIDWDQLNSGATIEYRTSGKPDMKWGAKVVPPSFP
The assay is described as follows: Activity of Bacteroides thetaiotaomicron GH92 alpha-mannosidase GH92 alpha-mannosidase 4093 assessed as mannose release at 1 mM after 16 hrs by HPLC relative to untreated control after 16 hrs by HPLC.

Consider `OC[C@H]1O[C@H](O[C@H]2[C@H](O)[C@H](O)[C@@H](O)O[C@@H]2CO)[C@@H](O)[C@@H](O)[C@@H]1O`, for which, in assay [1], the result was inactive. Also, the Activity was 4.7% in assay [2] and 100% in assay [3].
The corresponding values for `OC[C@H]1O[C@H](O[C@H]2[C@@H](O)[C@H](O)[C@@H](CO)O[C@@H]2O)[C@@H](O)[C@@H](O)[C@@H]1O` are “inactive”, 0.91% and “inactive”.
As for `OC[C@H]1O[C@H](OC[C@H]2O[C@H](O)[C@@H](O)[C@@H](O)[C@@H]2O)[C@@H](O)[C@@H](O)[C@@H]1O`, the outcome in assay [1] and in assay [3] was inactive. Besides, the Activity in assay [2] was 0.0088%.
Regarding `OC[C@H]1O[C@H](O[C@@H]2[C@H](O)[C@@H](O)O[C@H](CO)[C@H]2O)[C@@H](O)[C@@H](O)[C@@H]1O`, the result in assay [1] and in assay [3] was inactive.
